From US20250230138A1, “COMPOUNDS HAVING A T-STRUCTURE FORMED BY AT LEAST FOUR CYCLES FOR USE IN THE TREATMENT OF CANCER AND OTHER INDICATIONS” (TheRas, Inc., priority 2022, published 2025)
Read-outs that look alike come from different tables or passages of the source.

Experiments:
[1] = molecular target: Cys242 in human PIK3CA (157-299) (Homo sapiens (Human), UniProt P42336); assay: Covalent modification assay using MALDI-TOF MS; format: biochemical; conditions: 4 h reaction time point; 3.33 μM protein target, 1:7.5 protein to compound ratio (compounds 1-852)
How it was run: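 PIK3CA (157-299) at 3.33 μM or 1 μM in 20 mM HEPES, 150 mM NaCl, 2 mM MgCl2, pH 7.3 was incubated with compound (from 10 mM DMSO stocks) in the dark at room temperature for 15 min, 30 min, 2 h or 4 h. Linear-mode MALDI-TOF peak heights gave percent modification.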

pAKT in BT474 cells = assay: Cell-based pAKT HTRF assay in BT474 cells; conditions: BT474 cells, 4 hr incubation, Compounds 10-999, read-out: pAKT inhibition IC50 in BT474 cells
How it was run: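 Compound titration: 3 μM downward in 3-fold steps, nine points, 4 hr on cells. Detection: lysis, then d2 plus Eu Cryptate antibody mix, room-temperature incubation of 4–24 h, and time-resolved fluorescence read at 615 nm.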

Sequence of Cys242 in human PIK3CA (157-299) (P42336 157-299): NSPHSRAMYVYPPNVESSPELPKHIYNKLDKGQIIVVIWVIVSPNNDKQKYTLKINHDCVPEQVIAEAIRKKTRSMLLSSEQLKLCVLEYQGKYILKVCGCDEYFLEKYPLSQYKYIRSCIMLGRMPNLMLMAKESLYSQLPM

IC50 (pAKT in BT474 cells; Homo sapiens, BT-474) [nM]	IC50 (pAKT in BT474 cells) [nM]	Compound	% of modification [1]
< 100		C=CC(=O)N1CCn2nc(-c3nc(-c4ccc5c(c4)CCNC5=O)c4ccsc4c3-c3ccc(F)cc3OC(C)C)cc2C1 [Compound 199, 6-[7-(4-fluoro-2-isopropoxy-phenyl)-6-(5-prop-2-enoyl-6,7-dihydro-4H-pyrazolo[1,5-a]pyrazin-2-yl)thieno[3,2-c]pyridin-4-yl]-3,4-dihydro-2H-isoquinolin-1-one]	A (percent of modification of PIK3CA protein ≥75%)
< 100		C=CC(=O)N1CCn2nc(-c3nc(-c4cnn(C)c4)c4ccsc4c3-c3ccc(F)cc3OC(C)C)cc2C1 [Compound 200, 1-[2-[7-(4-fluoro-2-isopropoxy-phenyl)-4-(1-methylpyrazol-4-yl)thieno[3,2-c]pyridin-6-yl]-6,7-dihydro-4H-pyrazolo[1,5-a]pyrazin-5-yl]prop-2-en-1-one]	A (percent of modification of PIK3CA protein ≥75%)
	< 100	C=CC(=O)N1CCn2nc(-c3nc(-c4ccc(=O)n(C)c4)c4ccsc4c3-c3ccc(F)cc3OC(C)C)cc2C1 [Compound 201]	A (percent of modification of PIK3CA protein ≥75%)
	< 100	C=CC(=O)N1CCn2nc(-c3nc(-c4cncc(C#N)c4)c4ccsc4c3-c3ccc(F)cc3OCCOC)cc2C1 [Compound 202]	A (percent of modification of PIK3CA protein ≥75%)
	< 100	C=CC(=O)N1CCn2nc(-c3nc(-c4cncc(Cl)c4)c4ccsc4c3-c3ccc(F)cc3OCCOC)cc2C1 [Compound 203]	A (percent of modification of PIK3CA protein ≥75%)
	100 to 1000	C=CC(=O)N1CC(n2nc(-c3nc(-c4ccc5c(c4)CCNC5)c4ccsc4c3-c3ccc(F)cc3OCCOC)ccc2=O)C1 [Compound 204]	B (50%<percent of modification <75%)
	< 100	C=CC(=O)N1CCn2nc(-c3nc(-c4ccc(=O)n(C)c4)c4ccsc4c3-c3ccc(F)cc3OCCOC)nc2C1 [Compound 205]	A (percent of modification of PIK3CA protein ≥75%)
< 100		C=CC(=O)N1CCn2nc(-c3nc(-c4cnn(C)c4)c4ccsc4c3-c3ccc(F)cc3OC)cc2C1 [Compound 206, 1-[2-[7-(4-fluoro-2-methoxy-phenyl)-4-(1-methylpyrazol-4-yl)thieno[3,2-c]pyridin-6-yl]-6,7-dihydro-4H-pyrazolo[1,5-a]pyrazin-5-yl]prop-2-en-1-one]	A (percent of modification of PIK3CA protein ≥75%)
	< 100	C=CC(=O)N1CCn2nc(-c3nc(N4CCC5(CC4)COC5)c4ccsc4c3-c3ccc(F)cc3OC(C)C)cc2C1 [Compound 207]	A (percent of modification of PIK3CA protein ≥75%)
	< 100	C=CC(=O)N1CCn2nc(-c3nc(N4CCN(C(C)C)CC4)c4ccsc4c3-c3ccc(F)cc3OC(C)C)cc2C1 [Compound 208]	A (percent of modification of PIK3CA protein ≥75%)
	< 100	C=CC(=O)N1CCn2nc(-c3nc(N4CCN(C(C)C)CC4)c4ccsc4c3-c3ccc(F)cc3OCCOC)cc2C1 [Compound 209]	A (percent of modification of PIK3CA protein ≥75%)
	< 100	C=CC(=O)N1CC(n2cc(-c3nc(-c4ccc5c(c4)CCNC5)c4ccsc4c3-c3ccc(F)cc3OCCOC)ncc2=O)C1 [Compound 210]	A (percent of modification of PIK3CA protein ≥75%)
	< 100	C=CC(=O)N1CCn2nc(-c3nc(N4CCC5(CC4)CS(=O)(=O)C5)c4ccsc4c3-c3ccc(F)cc3OC(C)C)cc2C1 [Compound 211]	A (percent of modification of PIK3CA protein ≥75%)
	< 100	C=CC(=O)N1CCn2nc(-c3nc(-c4cnn(C)c4)c4ccsc4c3-c3ccc(F)cc3OCC3CCNC(=O)C3)cc2C1 (stereo not shown) [Compound 212]	A (percent of modification of PIK3CA protein ≥75%)
	100 to 1000	C=CC(=O)N1CC[C@H](n2cc(-c3nc(-c4cnn(C)c4)c4ccsc4c3-c3ccc(F)cc3OCC3CCNC(=O)C3)ccc2=O)C1 (stereo partly shown) [Compound 213]	A (percent of modification of PIK3CA protein ≥75%)
	100 to 1000	C=CC(=O)N1CC[C@H](n2cc(-c3nc(-c4ccc5c(c4)CCNC5)c4ccsc4c3-c3ccc(F)cc3OCC3CCNC(=O)C3)ccc2=O)C1 (stereo partly shown) [Compound 214]	A (percent of modification of PIK3CA protein ≥75%)
	100 to 1000	C=CC(=O)N1CCc2nc(-c3nc(-c4ccc5c(c4)CCNC5)c4ccsc4c3-c3ccc(F)cc3OC(F)F)sc2C1 [Compound 215]	A (percent of modification of PIK3CA protein ≥75%)
	100 to 1000	C=CC(=O)N1CCn2nc(-c3nc(-c4cnn(C)c4)c4ccsc4c3-c3ccc(F)cc3OC(F)F)nc2C1 [Compound 216]	A (percent of modification of PIK3CA protein ≥75%)
	< 100	C=CC(=O)N1CCn2nc(-c3nc(-c4ccnc(N)c4)c4ccsc4c3-c3ccc(F)cc3OC(F)F)nc2C1 [Compound 217]	A (percent of modification of PIK3CA protein ≥75%)

IC50 (pAKT in BT474 cells; Homo sapiens, BT-474) [nM]	IC50 (pAKT in BT474 cells) [nM]	Compound	% of modification [1]
	< 100	C=CC(=O)N1CCn2nc(-c3nc(-c4ccc5c(c4)CCN(C(C)C)C5)c4ccsc4c3-c3ccc(F)cc3OC(F)F)nc2C1 [Compound 218]	A (percent of modification of PIK3CA protein ≥75%)
	< 100	C=CC(=O)N1CCn2nc(-c3nc(-c4ccc5c(c4)CCNC5=O)c4ccsc4c3-c3ccc(F)cc3OC(C)C)nc2C1 [Compound 219]	A (percent of modification of PIK3CA protein ≥75%)
	< 100	C=CC(=O)N1CCn2nc(-c3nc(C4CCN(C(C)C)CC4)c4ccsc4c3-c3ccc(F)cc3OCCOC)cc2C1 [Compound 220]	A (percent of modification of PIK3CA protein ≥75%)
	< 100	C=CC(=O)N1CCc2nc(-c3nc(-c4cnn(C)c4)c4ccsc4c3-c3ccc(F)cc3OCC3CCN(C)C(=O)C3)sc2C1 (stereo not shown) [Compound 221]	A (percent of modification of PIK3CA protein ≥75%)
	< 100	C=CC(=O)N1CCn2nc(-c3nc(-c4ccc5c(c4)CCNC5)c4ccsc4c3-c3ccc(F)cc3OC(F)F)cc2C1 [Compound 222]	A (percent of modification of PIK3CA protein ≥75%)
	< 100	C=CC(=O)N1CCn2nc(-c3nc(-c4ccc(=O)n(C)c4)c4ccsc4c3-c3ccc(F)cc3OC(F)F)cc2C1 [Compound 223]	A (percent of modification of PIK3CA protein ≥75%)
	< 100	C=CC(=O)N1CCn2nc(-c3nc(-c4cnn(C)c4)c4ccsc4c3-c3ccc(F)cc3OC(F)F)cc2C1 [Compound 224]	A (percent of modification of PIK3CA protein ≥75%)
	< 100	C=CC(=O)N1CCn2nc(-c3nc(-c4cnn(C)c4)c4ccsc4c3-c3ccc(F)cc3OC(C)C)nc2C1 [Compound 225]	A (percent of modification of PIK3CA protein ≥75%)
	< 100	C=CC(=O)N1CCn2nc(-c3nc(-c4ccnc(N)c4)c4ccsc4c3-c3ccc(F)cc3OC(F)F)cc2C1 [Compound 226]	A (percent of modification of PIK3CA protein ≥75%)
	< 100	C=CC(=O)N1CCc2nc(-c3nc(-c4cnc5c(c4)CNCC5)c4ccsc4c3-c3ccc(F)cc3OCCOC)sc2C1 [Compound 227]	A (percent of modification of PIK3CA protein ≥75%)
	100 to 1000	C=CC(=O)N1CC(n2cc(-c3nc(N4CCn5cnnc5C4)c4ccsc4c3-c3ccc(F)cc3OCCOC)cn2)C1 [Compound 228]	A (percent of modification of PIK3CA protein ≥75%)
	100 to 1000	C=CC(=O)N1CCC(n2cc(-c3nc(-c4cnn5c4C(=O)NCC5)c4ccsc4c3-c3ccc(F)cc3OCCOC)cn2)CC1 [Compound 230]	B (50%<percent of modification <75%)
	< 100	C=CC(=O)N1CC(n2cc(-c3nc(-c4cnn(CC(F)F)c4)c4ccsc4c3-c3ccc(F)cc3OCCOC)cn2)C1 [Compound 232]	A (percent of modification of PIK3CA protein ≥75%)
	< 100	C=CC(=O)N1CC(n2cc(-c3nc(-c4cnn(CCO)c4)c4ccsc4c3-c3ccc(F)cc3OCCOC)cn2)C1 [Compound 233]	A (percent of modification of PIK3CA protein ≥75%)
	< 100	C=CC(=O)N1CC(n2cc(-c3nc(-c4ccnc(N)c4)c4ccsc4c3-c3ccc(F)cc3OCCOC)cn2)C1 [Compound 234]	A (percent of modification of PIK3CA protein ≥75%)
	100 to 1000	C=CC(=O)N1CC(n2cc(-c3nc(-c4cnn(CF)c4)c4ccsc4c3-c3ccc(F)cc3OCCOC)cn2)C1 [Compound 236]	A (percent of modification of PIK3CA protein ≥75%)
	100 to 1000	C=CC(=O)N1CC(n2cc(-c3nc(-c4cnn(CC5CC5(F)F)c4)c4ccsc4c3-c3ccc(F)cc3OCCOC)cn2)C1 (stereo not shown) [Compound 237]	A (percent of modification of PIK3CA protein ≥75%)
	< 100	C=CC(=O)N1CC(n2cc(-c3nc(-c4ccc(S(N)(=O)=O)cc4)c4ccsc4c3-c3ccc(F)cc3OCCOC)cn2)C1 [Compound 238]	A (percent of modification of PIK3CA protein ≥75%)
	< 100	C=CC(=O)N1CC(n2cc(-c3nc(-c4cnn(CC(N)=O)c4)c4ccsc4c3-c3ccc(F)cc3OCCOC)cn2)C1 [Compound 239]	A (percent of modification of PIK3CA protein ≥75%)
